Some test systems named below: MOLT-4 leukemia; M14 melanoma; NCI/ADR-RES ovarian; HT29 colon; SK-MEL-2 melanoma; TK-10 renal; SF-268 CNS; A549 NSCLC; SN12C renal; OVCAR-8 ovarian.
Common to all, as to assay: NCI-60 cell line screen, 48 h

Molecules are shown by their SMILES.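 Cultured in 96-well plates, cells were exposed to test compound for 48 hours across five concentrations. At the TGI there is no net growth.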 Some results are limits rather than exact numbers.

On to `Cc1[nH]c(-c2ccccc2)c(-c2ccc(Cl)cc2)c1C(=O)ONC(=O)c1ccccc1`, for which the TGI amounted to 6.97 µM with MOLT-4 leukemia; 19.9 µM in the experiment with M14 melanoma; 14.2 µM in the experiment on NCI/ADR-RES ovarian; 22.9 µM with HT29 colon; 11.2 µM in the experiment on SK-MEL-2 melanoma; 9.76 µM with TK-10 renal. In addition, the TGI in the experiment with SF-268 CNS was found to be 6.9 µM; in the experiment on A549 NSCLC, 10.4 µM; in the experiment on SN12C renal, 5.21 µM; with OVCAR-8 ovarian it was 17 µM.
As to `CCOC(=O)C(Cc1ccccc1)(Cc1ccc(O)cn1)NC(=O)c1ccccc1` (configuration not stated), the TGI in the experiment on MOLT-4 leukemia is > 100 µM; in the experiment on M14 melanoma, 40.5 µM; with NCI/ADR-RES ovarian it was > 100 µM; with HT29 colon it was 81 µM; with SK-MEL-2 melanoma it was 43.9 µM; in the experiment with TK-10 renal, > 100 µM. The TGI in the experiment with SF-268 CNS was 61.7 µM; with A549 NSCLC, > 100 µM; with OVCAR-8 ovarian, > 100 µM.
In the case of `O=C(c1ccco1)N(C(=S)OCc1ccccn1)c1ccccc1`, the TGI with MOLT-4 leukemia, in the experiment with M14 melanoma, with NCI/ADR-RES ovarian, in the experiment with HT29 colon, in the experiment with SK-MEL-2 melanoma and in the experiment with TK-10 renal was > 100 µM in each case. Besides, the TGI in the experiment on SF-268 CNS, in the experiment on SN12C renal and in the experiment on OVCAR-8 ovarian was > 100 µM in each case.
Take `COC(=O)[C@@H]1N2C(=S)N(c3ccccc3)C(=O)[C@H]2SC1(C)C`: the TGI with MOLT-4 leukemia, in the experiment on M14 melanoma, in the experiment on NCI/ADR-RES ovarian, in the experiment with HT29 colon, in the experiment with SK-MEL-2 melanoma and in the experiment on TK-10 renal was > 100 µM in each case. The TGI in the experiment with SF-268 CNS, with A549 NSCLC, in the experiment on SN12C renal and in the experiment on OVCAR-8 ovarian was > 100 µM each time.
Take `OC1OC(c2ccco2)C(F)(F)C(F)(F)C1(F)F` (configuration not stated): the TGI in the experiment with M14 melanoma, with NCI/ADR-RES ovarian, with HT29 colon, in the experiment on SK-MEL-2 melanoma, with TK-10 renal and in the experiment on SF-268 CNS was > 100 µM in each case. The TGI with A549 NSCLC, in the experiment with SN12C renal and with OVCAR-8 ovarian was > 100 µM in each case.
With `CCOC(=O)C1=C(C)NC(=S)NC1c1cccc(O)c1` (configuration not stated), the TGI in the experiment on MOLT-4 leukemia is > 100 µM; in the experiment on M14 melanoma, 60.5 µM; in the experiment on NCI/ADR-RES ovarian it was > 100 µM; in the experiment with HT29 colon it was > 100 µM; with SK-MEL-2 melanoma, 79 µM; in the experiment with TK-10 renal it was > 100 µM. Also, the TGI with SF-268 CNS was > 100 µM; in the experiment on A549 NSCLC it was > 100 µM; in the experiment with SN12C renal, > 95.3 µM; with OVCAR-8 ovarian, > 100 µM.
In the case of `O=C(NNC(=S)Nc1ccccc1)c1csc(NC(=S)NC2CCCCC2)n1`, the TGI in the experiment with MOLT-4 leukemia, with M14 melanoma, with NCI/ADR-RES ovarian, with HT29 colon, with SK-MEL-2 melanoma and with TK-10 renal was > 100 µM each time. In addition, the TGI in the experiment on SF-268 CNS, in the experiment on A549 NSCLC, with SN12C renal and with OVCAR-8 ovarian was > 100 µM each time.
For the compound `CSc1ncc2c(n1)-c1ccccc1OC2N1CCCC1` (configuration not stated), the TGI in the experiment on MOLT-4 leukemia, in the experiment on M14 melanoma, with NCI/ADR-RES ovarian, in the experiment with HT29 colon, with SK-MEL-2 melanoma and in the experiment on TK-10 renal was > 100 µM in each case. For the same compound, the TGI in the experiment on SF-268 CNS, with A549 NSCLC, with SN12C renal and in the experiment with OVCAR-8 ovarian was > 100 µM in each case.
As to `O=C1NC(N/N=C\c2ccccc2)=N/C1=C/c1ccc(Cl)cc1`, the TGI in the experiment on MOLT-4 leukemia was 33.9 µM; in the experiment with M14 melanoma, > 100 µM; in the experiment on NCI/ADR-RES ovarian, 56.6 µM; with HT29 colon it was > 100 µM; in the experiment on SK-MEL-2 melanoma it was 82.9 µM; in the experiment on TK-10 renal, > 100 µM. Besides, the TGI in the experiment with SF-268 CNS came out at 94.7 µM; in the experiment on A549 NSCLC, 62.9 µM; in the experiment with SN12C renal, 54.6 µM; in the experiment with OVCAR-8 ovarian it was 49.6 µM.
On to `CN(C(=O)c1ccc(Cl)s1)C(=S)N(C)C(=O)c1ccc(Cl)s1`, for which the TGI in the experiment with MOLT-4 leukemia, with M14 melanoma, in the experiment on NCI/ADR-RES ovarian, in the experiment on HT29 colon, in the experiment with SK-MEL-2 melanoma and in the experiment with TK-10 renal was > 10 µM throughout. Also, the TGI with SF-268 CNS, in the experiment with A549 NSCLC, in the experiment with SN12C renal and in the experiment with OVCAR-8 ovarian was > 10 µM throughout.
As to `O=C1c2ccccc2CC12Cc1ccc3c(c1C2)CCC3` (configuration not stated), the TGI in the experiment on MOLT-4 leukemia is > 100 µM; in the experiment with M14 melanoma it was 49.1 µM; with NCI/ADR-RES ovarian, 28.4 µM; in the experiment with HT29 colon it was 29.2 µM; with SK-MEL-2 melanoma, 30.2 µM; in the experiment with TK-10 renal, 26.7 µM. Moreover, the TGI with SF-268 CNS is > 100 µM; with A549 NSCLC it was 64.2 µM; with SN12C renal, > 100 µM; with OVCAR-8 ovarian it was > 100 µM.
In the case of `COC(=O)c1cncc2c1CC1C3(C(=O)OC)C=NC(C4C(CO)=CCC43)C21C` (configuration not stated), the TGI in the experiment on MOLT-4 leukemia, with M14 melanoma, in the experiment with NCI/ADR-RES ovarian, with HT29 colon, in the experiment with SK-MEL-2 melanoma and with TK-10 renal was > 100 µM throughout. Moreover, the TGI in the experiment with SF-268 CNS, in the experiment with A549 NSCLC, in the experiment with SN12C renal and with OVCAR-8 ovarian was > 100 µM each time.
For the compound `Cc1cc(S(=O)(=O)Nc2nnc3cc(C(F)(F)F)cc(C)n23)c(S)cc1Cl`, the TGI with MOLT-4 leukemia, in the experiment on M14 melanoma, with NCI/ADR-RES ovarian, in the experiment on HT29 colon, in the experiment with SK-MEL-2 melanoma and with TK-10 renal was > 100 µM in each case. Further, the TGI is > 100 µM in the experiment with SF-268 CNS, 52.8 µM in the experiment on A549 NSCLC, > 100 µM in the experiment on SN12C renal and > 100 µM in the experiment on OVCAR-8 ovarian.
On to `CN1CC(c2ccccc2)N(CCCCN2CC(c3ccccc3)N(C)CC2c2ccccc2)CC1c1ccccc1` (configuration not stated), for which the TGI in the experiment on MOLT-4 leukemia was > 100 µM; with M14 melanoma, > 100 µM; in the experiment on NCI/ADR-RES ovarian, > 100 µM; in the experiment on HT29 colon, > 100 µM; with SK-MEL-2 melanoma, 81.2 µM; with TK-10 renal it was > 100 µM. The TGI in the experiment with SF-268 CNS, in the experiment on A549 NSCLC, with SN12C renal and with OVCAR-8 ovarian was > 100 µM in each case.

The record behind these values is PubChem BioAssay (NCI).
